One experiment deals with T1, HDAC2 (Homo sapiens, UniProt Q92769).
T1 construct: purchased BPS Bioscience, CA
The experiment in a line: Specific HDAC activity analysis (fluorogenic assay kit). The class given is biochemical. The following applies: cell free supernatant diluted 1 in 10. The protocol:
(§1) Specific HDAC inhibition activity was analysed for HDAC1, 2, 3, 4, 5, 6, 9 using fluorogenic assay kits for each type of HDAC (BPS Bioscience, CA). Assays were conducted according to manufacturer's instructions and each sample were performed in replicates. Cell free supernatants were diluted 1 in 10 and exposed to specific HDAC proteins provided in the kit to maintain consistency between methods.
(§2) The specific HDAC inhibition profile of the test bacteria strain was investigated. Specific HDAC inhibition assays (BPS Bioscience, CA) were carried out for Class I and Class II HDACs. The ability of the bacterial strain to inhibit HDAC enzymes was compared to butyrate, hexanoic and valeric acid.

For another experiment, the target named is T2, HDAC1 (Homo sapiens, UniProt Q13547).
T2 construct: purchased BPS Bioscience, CA
T2 sequence (Q13547 whole entry): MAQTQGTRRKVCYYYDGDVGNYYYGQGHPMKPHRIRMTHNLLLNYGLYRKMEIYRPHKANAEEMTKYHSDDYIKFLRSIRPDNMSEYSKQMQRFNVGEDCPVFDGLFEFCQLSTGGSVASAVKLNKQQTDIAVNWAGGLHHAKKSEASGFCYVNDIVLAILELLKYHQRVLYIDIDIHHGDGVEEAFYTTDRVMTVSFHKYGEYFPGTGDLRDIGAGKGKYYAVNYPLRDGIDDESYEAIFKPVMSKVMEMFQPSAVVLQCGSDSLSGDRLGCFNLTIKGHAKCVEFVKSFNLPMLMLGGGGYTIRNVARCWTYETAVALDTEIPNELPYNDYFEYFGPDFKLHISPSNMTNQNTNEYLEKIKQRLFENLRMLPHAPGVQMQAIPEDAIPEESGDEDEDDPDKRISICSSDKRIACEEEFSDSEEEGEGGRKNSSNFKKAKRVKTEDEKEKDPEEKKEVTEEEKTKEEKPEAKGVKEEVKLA
Described as above. It is filed as biochemical. Particulars: cell free supernatant diluted 1 in 10. As to the method:
as §1, §2

A further experiment deals with T3, HDAC3 (Homo sapiens, UniProt O15379).
T3 construct: purchased BPS Bioscience, CA
T3 sequence (O15379 whole entry): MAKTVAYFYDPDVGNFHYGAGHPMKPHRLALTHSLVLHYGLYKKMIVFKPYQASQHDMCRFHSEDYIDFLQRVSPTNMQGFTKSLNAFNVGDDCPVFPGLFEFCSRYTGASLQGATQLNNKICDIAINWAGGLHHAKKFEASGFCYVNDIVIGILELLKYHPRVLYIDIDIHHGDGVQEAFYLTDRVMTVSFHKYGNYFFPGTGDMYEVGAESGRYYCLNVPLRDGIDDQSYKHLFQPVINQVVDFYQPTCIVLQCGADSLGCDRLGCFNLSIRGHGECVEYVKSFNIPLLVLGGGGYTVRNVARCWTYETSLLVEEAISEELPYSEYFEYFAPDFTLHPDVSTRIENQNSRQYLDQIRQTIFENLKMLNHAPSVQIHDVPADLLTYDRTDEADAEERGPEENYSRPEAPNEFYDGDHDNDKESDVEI
T3 sequence (Q9Y618 395-489 partner limits assumed): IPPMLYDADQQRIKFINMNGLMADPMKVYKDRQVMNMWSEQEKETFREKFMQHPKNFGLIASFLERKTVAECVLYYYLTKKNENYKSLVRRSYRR
The description is as above. It is filed as biochemical. The following applies: cell free supernatant diluted 1 in 10. As to the method:
as §1, §2

The subject of a further experiment is class II HDACs. Described as above. The following applies: data not shown. It is filed as biochemical. As to the method:
as §1, §2

The test system of another experiment is Caspase 3 (Casp3). The experiment in a line: Caspase 3 expression in SH-SY5Y cells. The class given is cell-based. The following applies: undifferentiated SH-SY5Y cells, vs control. The source says: The inventors measured the change in Casp3 expression in neuroblastoma cells.
Another experiment deals with IL-8. The experiment is described as follows: IL-8 secretion in U373 cells treated with SCFAs or supernatant fractions (ELISA). It is filed as cell-based, Human. The following applies: U373 cells, with or without 1 μg/ml LPS, 24 h. The protocol:
Human glioblastoma astrocytoma cell line (U373), were maintained in 25 ml MEME 4.5 g/L D-glucose supplemented with 10% heat-inactivated FBS, 4 mM L-Glutamine, 100 U/ml penicillin, 100 μg/ml streptomycin and 5 μg/ml plasmocin, 1% Non-Essential Amino Acids, 1% Sodium Pyruvate (referred to as full growth media).
U373 cells were prepared as described above. Cells were pre-treated for 1 h with 1 μg/ml LPS indicated above and incubated at 37° C. and 5% CO2. After 1 h pre-incubation, cells were removed from CO2 incubator and treated with increasing concentration of fresh prepared Sodium Butyrate (SB), Sodium Valerate (SV) and Hexanoic Acid (HA).
U373 cells were prepared as described above. Cells were pre-treated for 1 h with 1 μg/ml LPS as indicated above. Afterwards, cells were removed from CO2 incubator and treated with 100 μl of the different fractions. Fractions from media were used as controls. Cell-free supernatants were collected 24 h after treatment and analysed by ELISA for IL-8 secretion (as outlined above).

The next experiment has as its system MAP2. The experiment in a line: MAP2 expression in SH-SY5Y cells (qPCR, immunostaining, immunoblotting). It is filed as cell-based. The following applies: undifferentiated SH-SY5Y cells, 10% bacterial supernatant, vs untreated cells. As to the method:
SH-SY5Y were plated in 10 cm petri dishes a density of 2×10^6 cells. After 24 h cells were treated in differentiation medium (growth medium containing 1% FBS without RA) with 10% bacteria supernatants or YCFA+, 10 uM RA, 200 uM hexanoic acid or 200 uM valproic acid, for 17 hrs. There after representative images were taken using phase contrast EVOS XL core microscope at 40×10.65 magnification. Cells were collected, and total RNA was isolated according to RNeasy mini kit protocol (Qiagen). cDNAs were made using the high capacity cDNA reverse transcription kit (Applied Biosystems). Gene expression was measured using qPCR. GAPDH was used as internal control. Fold change was calculated according to the 2^(−ΔΔct) method.
Cells were seeded onto 8-well chamber slides (Marienfeld Laboratory Glassware) at 5×10^4 cells/well overnight and were treated with 10% bacterial supernatant for 24 h. […]
SH-SY5Y cells cultured under the indicated conditions described above, treated with MRx0029 for 24 h and then lysed in RIPA buffer containing cocktail of protease inhibitors (Roche Diagnostics, UK). […] The blots were then incubated with the appropriate horseradish peroxidase (HRP)-conjugated secondary antibody, and proteins were detected by chemiluminescence detection kit (Pierce Biotechnology, Rockford, Ill.). […]
(In qPCR the cycle at which signal appears reflects the starting amount.)

T1 sequence (Q92769 whole entry): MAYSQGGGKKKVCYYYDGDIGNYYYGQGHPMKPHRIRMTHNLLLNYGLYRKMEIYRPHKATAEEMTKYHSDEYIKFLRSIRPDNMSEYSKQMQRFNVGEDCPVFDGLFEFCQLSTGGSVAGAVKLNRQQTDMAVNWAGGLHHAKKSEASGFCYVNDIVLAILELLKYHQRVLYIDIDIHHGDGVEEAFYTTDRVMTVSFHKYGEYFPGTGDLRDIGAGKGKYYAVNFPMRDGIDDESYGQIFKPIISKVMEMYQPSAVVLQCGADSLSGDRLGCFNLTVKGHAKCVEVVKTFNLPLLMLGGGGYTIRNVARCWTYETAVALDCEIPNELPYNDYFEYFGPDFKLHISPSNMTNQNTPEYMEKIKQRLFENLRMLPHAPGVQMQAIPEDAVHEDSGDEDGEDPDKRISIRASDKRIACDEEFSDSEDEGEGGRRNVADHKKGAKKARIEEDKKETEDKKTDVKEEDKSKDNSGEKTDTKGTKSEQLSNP

In the case of Megasphaera massiliensis MRx0029, the “inhibition of HDAC2” value at HDAC2 is “very potent inhibitor”. Also, at HDAC1, the “inhibition of HDAC1” value is recorded as “very potent inhibitor”. For the same substance, the “inhibition of HDAC3” value on HDAC3 is given as “very potent inhibitor”. In the experiment with class II HDACs, the “inhibition of class II HDACs” value is reported as “not as significant”. For the same substance, the “expression of Casp3” value in the experiment on Caspase 3 (Casp3) is listed as “increased the expression of Casp3 threefold”. In the experiment with IL-8, the “IL-8 secretion in the presence and absence of LPS” value is listed as “induced IL-8 secretion”. Moreover, the “expression of MAP2” value in the experiment on MAP2 is “significantly increased the expression of MAP2”.
